These are literature values, as cited in patent US11098113B2, “Immunoglobulin single variable domains directed against macrophage migration inhibitory factor” (VIB VZW, priority 2016, dated 2021).

This data set relates to LPS stimulated RAW264.7 macrophages. Conditions: ISO-1 at 10 μM, same in vitro conditions; cited from earlier work.

As for `COC(=O)C[C@@H]1CC(c2ccc(O)cc2)=NO1` (racemic) [ISO-1, (S,R)-3-(4-hydroxyphenyl)-4,5-dihydro-5-isoxazole acetic acid methyl ester], the “inhibition of TNF production” value is “about 50%”.
